Here are results for two compounds from patent publication US20140356383A1, “ADMINISTRATION OF AN ANTI-GCC ANTIBODY-DRUG CONJUGATE AND A DNA DAMAGING AGENT IN THE TREATMENT OF CANCER” (priority 2013, published 2014).

Data set [1] concerns 293-GCC#2 tumors. The data set can be described thus: PK/PD study (phospho-histone H3) in 293-GCC#2 tumor bearing mice. The format is in vivo. From the text: Phospho-histone H3 was detected by antibody (Upstate Biotechnology, now Millipore, Billerica, Mass.) staining of paraffin embedded sections of tumors.
The test system of data set [2] is HT29-GCC#5 s.c. tumors. Description: Pilot efficacy studies in HT29-GCC#5 s.c. tumors. The format is in vivo. Particulars: 150 μg/kg on a q3d×5 schedule, mice bearing HT29-GCC#5 tumors. Here is the method: Studies were performed to determine efficacious conjugates and dosage regimens in mice bearing HT29-GCC#5 tumors. Mice were dosed with single or multiple doses. These studies determined that there was toxicity at too frequent dosing at higher levels of toxin conjugate (e.g., 150 μg/kg 5F9vcMMAF on a q3d×5 schedule). Another study determined that q14d×5 schedule was too infrequent in this model to allow some toxin conjugates to show significant efficacy vs. controls.

In data set [3] the test system is 293 GCC#2 tumors. The data set can be described thus: Efficacy study with auristatin conjugates in 293 GCC#2 tumors, q7d×4. The note with it: for T/C: treatment/control. The data set is classed as in vivo, SCID mice. The protocol:
293 GCC#2 tumor-bearing SCID mice were treated with 5F9 conjugates with vc MMAE, vcMMAF or mcMMAF at three doses in comparison with 209 conjugates of these toxins or with free toxins or vehicle control. Doses were administered iv on a q7d×4 schedule. Tumors were harvested at days 3, 7, 10, 13 and 17. […] Table 18 provides a summary of the results (TGI=tumor growth inhibition, T/C=treatment/control, TGD=tumor growth delay, CR/PR=complete response/partial response; p value=measure to judge statistical significance, NS=not significant).

In data set [4] the test system is HT 29 GCC #18 cells. Description: Direct cytotoxicity assay (WST), HT 29 GCC #18 cells. The format is cell-based, human. Particulars: auristatin ADCs.
The subject of data set [5] is 293-GCC#2 s.c. tumors. Description: Efficacy study with 5F9vcMMAF and 5F9-DMx in 293-GCC#2 s.c. tumors, q14d×5. Particulars: 293-GCC#2 bearing SCID mice, 75 and 150 μg/kg toxin. The data set is classed as in vivo. The protocol: 5F9-SPDB-DM4, 5F9-SMCC-DM1 and 5F9vcMMAF were tested for efficacy in the 293-GCC#2 tumor model at two doses (75 μg/kg and 150 […] toxin), on a q14d×5 schedule. Specifically, this study included vehicle-treated control, Sc209-DM1 (150 μg/kg DM1 eq), Sc209-DM4 (150 μg/kg DM4 eq), Sc209-vcMMAF (150 μg/kg MMAF eq), 5F9-DM1 (150 μg/kg DM1 eq), 5F9-DM1 (75 μg/kg DM1 eq), 5F9-DM4 (150 μg/kg DM4 eq), 5F9-DM4 (75 μg/kg DM4 eq), 5F9-vcMMAF (150 μg/kg MMAF eq), and 5F9-vcMMAF (75 μg/kg MMAF eq). Taconic female mice bearing 293-GCC#2 cells (10 mice per group) were used.
FIG. 1 depicts tumor growth in 293-GCC#2 bearing SCID mice treated with 5F9vc-MMAF, -DM1, and -DM4 on a q14d schedule. […] Therefore at these doses and schedules, 5F9-SPDB-DM4 had the greatest efficacious differential from its control conjugate.

Data set [6] relates to PHTX-249 Pa s.c. xenograft. The data set can be described thus: 5F9 vcMMAE and gemcitabine in PHTX-249 Pa s.c. xenografts (Study CPGC-13-EF08). The data set is classed as in vivo, CB-17 SCID mice. The note with it: for dAUC: reference vehicle. The protocol: 264.4 ul stock Gemcitabine into 3135.6 ul NS.
(§1) Day D0 was the first day of treatment.
(§2) Tumor volume was calculated using the formula: […]
(§3) A negative dAUC is interpreted as an increase in AUC relative to the reference. It is important to evaluate not only the P value, but also the dAUC. Comparisons with significant P values, but small dAUC values, may not be of interest.

For data set [7], the system named is PHTX-249 Pa s.c. xenograft. The data set can be described thus: 5F9 vcMMAE and gemcitabine in PHTX-249 Pa s.c. xenografts (Study CPGC-13-EF05). The data set is classed as in vivo, CB-17 SCID mice. The note with it: reference vehicle. The protocol: as §1, §2, §3
The test system of data set [8] is PHTX-215 Pa s.c. xenograft. Description: 5F9 vcMMAE and gemcitabine in PHTX-215 Pa s.c. xenografts (Study CPGC-13-EF10). Particulars: for dAUC (percent decrease in treatment AUC relative to reference group V, vehicle): PHTX-215 Pa s.c. xenograft, CB-17 SCID mice. The format is in vivo, CB-17 SCID mice. Here is the method:
as §1, §2
Table 77A the annotation table for group symbols. […] A negative dAUC is interpreted as an increase in AUC relative to the reference. It is important to evaluate not only the P value, but also the dAUC. Comparisons with significant P values, but small dAUC values, may not be of interest.

Where [9] appears, read: PHTX-215 Pa, immunoconjugate plus gemcitabine 15 mg/kg on days 1 and 3, or single agent gemcitabine.

As for “5F9-vcMMAF: 5F9 anti-GCC antibody conjugated with mc-vc-MMAF”, the “Average % Tumor cells pH 3 positive” value in data set [1] (single iv dose 75 μg/kg, 1 hr) was determined as 4.235%; in data set [1] (single iv dose 75 μg/kg, 4 hr), 4.184%; in data set [1] (single iv dose 75 μg/kg, 8 hr), 4.93%; in data set [1] (single iv dose 75 μg/kg, 24 hr) it was 20.22%; in data set [1] (single iv dose 75 μg/kg, 48 hr), 9.921%; in data set [1] (single iv dose 75 μg/kg, 96 hr) it was 10.38%. For the same compound, the “Average % Tumor cells pH 3 positive” value in data set [1] (single iv dose 150 μg/kg, 1 hr) amounted to 3.466%; in data set [1] (single iv dose 150 μg/kg, 4 hr), 4.417%; in data set [1] (single iv dose 150 μg/kg, 8 hr), 8.594%; in data set [1] (single iv dose 150 μg/kg, 24 hr), 21.54%; in data set [1] (single iv dose 150 μg/kg, 48 hr), 15.16%; in data set [1] (single iv dose 150 μg/kg, 96 hr), 11.12%. Moreover, the “toxicity at too frequent dosing” value in data set [2] is “toxicity”. Besides, the TGI in data set [3] (37.5 μg/kg iv q7d×4) stood at 65.2; in data set [3] (75 μg/kg iv q7d×4), 88.5; in data set [3] (150 μg/kg iv q7d×4), 97. For the same compound, the T/C in data set [3] (37.5 μg/kg iv q7d×4) amounted to 0.35; in data set [3] (75 μg/kg iv q7d×4), 0.12; in data set [3] (150 μg/kg iv q7d×4), 0.03. Also, the TGD in data set [3] (37.5 μg/kg iv q7d×4, tumor growth delay) is 7.1. In addition, in data set [4], the “LD 50 (nM)” value is >10,000 nM. In addition, in data set [5], the “efficacy (tumor growth, FIG. 1)” value was “the most efficacious”.
As for `Nc1ccn([C@@H]2O[C@H](CO)[C@@H](O)C2(F)F)c(=O)n1` [gemcitabine], the “tumor regressions (animals)” value in data set [6] (PHTX-249 Pa (Studies CPGC-13-EF05/EF08), 5F9 vcMMAE 7.5 mg/kg, gemcitabine 15 mg/kg on days 1 and 3, alone or combined) is given as “no tumor regressions”; in data set [8] (setting [9]) it was “no tumor regressions”. Further, the tumor growth delay in data set [6] (PHTX-249 Pa, 5F9 vcMMAE plus gemcitabine 15 mg/kg on days 1 and 3 vs single agent) was 17 days; in data set [8] (setting [9]), 22.7 days. Also, the dAUC was 52.4% in data set [6] (group D: Gemcitabine 15 mg/kg BIW), 76.9% in data set [6] (group E: Gemcitabine 15 mg/kg D1,D3/week), 46.0% in data set [7] (group B: Gemcitabine 15 mg/kg BIW) and 46.7% in data set [7] (group C: Gemcitabine 20 mg/kg BIW). The TGI in data set [8] (setting [9]) turned out to be 69%. The “dAUC (percent decrease in treatment AUC relative to reference group V, vehicle)” value amounted to 61.0% in data set [8] (group C: Gemcitabine 15 mg/kg IV D1,D3/week x3) and 65.2% in data set [8] (group F: Gemcitabine 20 mg/kg IV BIW).
